Test results from ChEMBL document CHEMBL3400008, “Potent and selective Bruton's tyrosine kinase inhibitors: discovery of GDC-0834” (Bioorg Med Chem Lett, 2015).
In brackets after ≈: the same amount, converted by molar mass.

Columns and labels:
[1] = biological target: T1, Tyrosine-protein kinase BTK (Homo sapiens, UniProt Q06187)
[2] = Clearance in rat; format: ADME, organism-based; conditions: in vivo
[3] = Oral bioavailability in rat compound administered as solution in 20% (v/v) cremophor EL and 10% (v/v) ethanol in water; format: ADME, organism-based; conditions: in vivo
[4] = biological target: Tyrosine-protein kinase BTK (Mus musculus, UniProt P35991)
[5] = biological target: T1, Tyrosine-protein kinase BTK; test: Inhibition of BTK (unknown origin) after 1 hr by FRET assay
[6] = system: Homo sapiens; test: Drug metabolism in healthy human plasma treated with GDC-0834 at 35 to 105 mg, po; format: ADME, organism-based; conditions: in vivo
[7] = Oral bioavailability in rat compound administered as suspension in crystalline freebase in 0.5% (w/v) methylcellulose and 0.2% (w/v) polysorbate 80 in water; format: ADME, organism-based; conditions: in vivo
[8] = system: Salmonella typhimurium; test: Toxicity in Salmonella typhimurium TA98 in absence of S9 fraction; format: organism-based; conditions: salmonella enterica subsp. enterica serovar typhimurium
[9] = Clearance in dog; format: ADME, organism-based, Canis lupus familiaris; conditions: in vivo
[10] = Oral bioavailability in cynomolgus monkey; format: ADME, organism-based, Macaca fascicularis; conditions: in vivo
[11] = system: Homo sapiens; test: Drug metabolism in healthy human plasma assessed as formation of M1 metabolite at 35 to 105 mg, po; format: ADME, organism-based; conditions: in vivo
[12] = Clearance in cynomolgus monkey; format: ADME, organism-based, Macaca fascicularis; conditions: in vivo
[13] = Oral bioavailability in mouse; format: ADME, organism-based; conditions: in vivo
[14] = Clearance in mouse; format: ADME, organism-based; conditions: in vivo
[15] = system: Salmonella typhimurium; test: Toxicity in Salmonella typhimurium TA98 in presence of S9 fraction; format: organism-based; conditions: salmonella enterica subsp. enterica serovar typhimurium
[16] = system: Salmonella typhimurium; test: Toxicity in Salmonella typhimurium TA100 in absence of S9 fraction; format: organism-based; conditions: salmonella enterica subsp. enterica serovar typhimurium
[17] = biological target: hERG (KCNH2) (Homo sapiens, UniProt Q12809); test: Inhibition of human ERG at 10 uM
[18] = system: Salmonella typhimurium; test: Toxicity in Salmonella typhimurium TA100 in presence of S9 fraction; format: organism-based; conditions: salmonella enterica subsp. enterica serovar typhimurium
[19] = Solubility of the compound in fasted-state simulated intestinal fluid at pH 6.8; format: ADME
[20] = Oral bioavailability in dog compound administered as as suspension in crystalline freebase in 0.5% (w/v) methylcellulose and 0.2% (w/v) polysorbate 80 in water; format: ADME, organism-based, Canis lupus familiaris; conditions: in vivo
[21] = Oral bioavailability in dog compound administered as solution in 60% polyethylene glycol 400 in water; format: ADME, organism-based, Canis lupus familiaris; conditions: in vivo

Tyrosine-protein kinase BTK (Mus musculus, UniProt P35991), sequence (P35991 whole entry): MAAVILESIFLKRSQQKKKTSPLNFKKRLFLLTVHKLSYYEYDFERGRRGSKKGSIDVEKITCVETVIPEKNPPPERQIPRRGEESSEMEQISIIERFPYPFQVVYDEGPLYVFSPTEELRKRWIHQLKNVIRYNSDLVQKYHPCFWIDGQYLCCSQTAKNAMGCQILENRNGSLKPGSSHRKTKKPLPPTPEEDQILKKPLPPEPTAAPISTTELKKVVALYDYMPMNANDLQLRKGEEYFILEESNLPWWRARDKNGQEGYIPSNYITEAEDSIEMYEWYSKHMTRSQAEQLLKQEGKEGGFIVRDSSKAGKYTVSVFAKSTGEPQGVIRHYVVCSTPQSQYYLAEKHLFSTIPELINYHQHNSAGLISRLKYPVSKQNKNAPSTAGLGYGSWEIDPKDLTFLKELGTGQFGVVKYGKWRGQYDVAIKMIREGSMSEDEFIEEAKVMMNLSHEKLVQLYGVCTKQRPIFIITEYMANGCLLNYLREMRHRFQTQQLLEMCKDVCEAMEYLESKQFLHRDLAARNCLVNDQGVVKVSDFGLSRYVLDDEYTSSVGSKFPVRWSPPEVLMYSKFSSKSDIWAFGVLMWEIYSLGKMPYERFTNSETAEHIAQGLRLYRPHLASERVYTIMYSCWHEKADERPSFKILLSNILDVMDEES
T1 sequence (Q06187 whole entry): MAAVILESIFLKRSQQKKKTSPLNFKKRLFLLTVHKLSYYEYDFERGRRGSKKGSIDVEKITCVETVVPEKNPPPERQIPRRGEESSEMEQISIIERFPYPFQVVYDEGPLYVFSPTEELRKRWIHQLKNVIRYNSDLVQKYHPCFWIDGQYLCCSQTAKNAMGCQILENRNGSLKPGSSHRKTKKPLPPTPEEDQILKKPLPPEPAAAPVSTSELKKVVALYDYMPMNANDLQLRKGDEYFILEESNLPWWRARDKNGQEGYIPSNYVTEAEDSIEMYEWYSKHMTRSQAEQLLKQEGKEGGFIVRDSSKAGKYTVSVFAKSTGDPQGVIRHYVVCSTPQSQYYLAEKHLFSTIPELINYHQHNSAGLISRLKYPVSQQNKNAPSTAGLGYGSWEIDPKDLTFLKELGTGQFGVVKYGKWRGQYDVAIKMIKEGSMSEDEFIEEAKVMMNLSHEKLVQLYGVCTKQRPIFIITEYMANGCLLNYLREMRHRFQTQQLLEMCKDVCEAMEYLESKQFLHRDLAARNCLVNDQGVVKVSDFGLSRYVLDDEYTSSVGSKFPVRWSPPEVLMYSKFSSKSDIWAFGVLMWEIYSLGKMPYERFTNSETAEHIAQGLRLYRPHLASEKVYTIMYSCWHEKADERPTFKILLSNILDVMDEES
hERG (KCNH2), sequence (Q12809 whole entry): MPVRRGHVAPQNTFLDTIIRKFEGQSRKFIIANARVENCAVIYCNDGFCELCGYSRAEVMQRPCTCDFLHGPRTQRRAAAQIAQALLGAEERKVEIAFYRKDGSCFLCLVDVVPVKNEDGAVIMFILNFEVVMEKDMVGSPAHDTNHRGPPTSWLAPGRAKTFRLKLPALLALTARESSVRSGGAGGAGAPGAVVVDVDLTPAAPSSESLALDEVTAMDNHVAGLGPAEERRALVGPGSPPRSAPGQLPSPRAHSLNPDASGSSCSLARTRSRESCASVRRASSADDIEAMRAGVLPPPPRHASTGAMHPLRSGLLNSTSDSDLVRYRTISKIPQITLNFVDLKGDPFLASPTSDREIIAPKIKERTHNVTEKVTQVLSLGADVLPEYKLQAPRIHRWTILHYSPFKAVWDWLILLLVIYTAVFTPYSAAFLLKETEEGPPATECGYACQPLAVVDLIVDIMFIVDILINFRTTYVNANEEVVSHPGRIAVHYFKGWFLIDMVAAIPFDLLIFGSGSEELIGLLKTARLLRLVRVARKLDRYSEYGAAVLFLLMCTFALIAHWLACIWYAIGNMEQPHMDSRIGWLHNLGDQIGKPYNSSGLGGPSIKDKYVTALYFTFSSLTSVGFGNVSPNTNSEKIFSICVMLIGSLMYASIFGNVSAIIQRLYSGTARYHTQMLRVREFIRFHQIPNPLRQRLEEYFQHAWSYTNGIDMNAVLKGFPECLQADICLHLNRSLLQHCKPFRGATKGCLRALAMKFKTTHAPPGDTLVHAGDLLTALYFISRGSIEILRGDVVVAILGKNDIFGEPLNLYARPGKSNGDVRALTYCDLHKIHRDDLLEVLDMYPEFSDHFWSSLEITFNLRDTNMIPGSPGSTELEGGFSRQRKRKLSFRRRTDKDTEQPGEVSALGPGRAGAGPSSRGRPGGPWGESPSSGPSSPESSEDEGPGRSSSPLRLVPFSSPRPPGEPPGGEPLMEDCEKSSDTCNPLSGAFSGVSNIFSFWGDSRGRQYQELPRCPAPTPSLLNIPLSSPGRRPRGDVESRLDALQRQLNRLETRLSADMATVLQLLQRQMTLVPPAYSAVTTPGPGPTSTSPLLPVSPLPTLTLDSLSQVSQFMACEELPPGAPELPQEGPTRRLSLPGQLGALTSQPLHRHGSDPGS

Compound `Cc1c(NC(=O)c2ncc(C(C)(C)C)cn2)cccc1-c1cn(C)c(=O)c(Nc2ccc(C(=O)N3CCOCC3)cc2)n1` has an IC50 [1] of 50 nM.

For `Cc1c(NC(=O)c2cc3c(s2)CCCC3)cccc1-c1cn(C)c(=O)c(Nc2ccncn2)n1`, the clearance [2] was 5.4 mL/min/kg and the bioavailability [3] was 37%.

With `Cc1c(NC(=O)c2ccc(C(C)(C)C)nc2)cccc1-c1cn(C)c(=O)c(Nc2ccc(C(=O)N3CCOCC3)cc2)n1` the IC50 [1] was 130 nM and the IC50 [4] was 3500 nM.

`Cc1c(NC(=O)c2cc3c(s2)CCCC3)cccc1-c1cn(C)c(=O)c(Nc2cccnc2)n1` gave a clearance [2] of 9.2 mL/min/kg, an IC50 [4] of 5000 nM and a bioavailability [3] of 53%.

Compound `Cc1c(NC(=O)c2ccc(C(C)(C)C)cc2)cccc1-c1cn(C)c(=O)c(Nc2ccc(C(=O)N3CCOCC3)cc2)n1` has an IC50 [4] of 150 nM.

In the case of `Cc1c(NC(=O)c2cc3c(s2)CCCC3)cccc1-c1cn(C)c(=O)c(Nc2ccc(C(=O)N3CCOCC3)cc2)n1`, the clearance [2] is reported as 6 mL/min/kg, the IC50 [4] is reported as 230 nM and the bioavailability [3] is reported as 29%.

`Cc1c(NC(=O)c2ccc(C(C)(C)C)s2)cccc1-c1cn(C)c(=O)c(Nc2ccc(C(=O)N3CCOCC3)cc2)n1` showed an IC50 [4] of 490 nM.

Compound `Cc1c(NC(=O)c2ccccc2)cccc1-c1cn(C)c(=O)c(Nc2ccc(C(=O)N3CCOCC3)cc2)n1` has an IC50 [5] of 4600 nM.

`CCC(C)(C)c1ccc(C(=O)Nc2cccc(-c3cn(C)c(=O)c(Nc4ccc(C(=O)N5CCOCC5)cc4)n3)c2C)cc1` showed an IC50 [1] of 40 nM and an IC50 [4] of 80 nM.

With `Cc1c(NC(=O)c2ccc(C3(C)CC3)cc2)cccc1-c1cn(C)c(=O)c(Nc2ccc(C(=O)N3CCOCC3)cc2)n1` the IC50 [1] was 30 nM and the IC50 [4] was 580 nM.

`Cc1c(NC(=O)c2cc3c(s2)CCCC3)cccc1-c1cn(C)c(=O)c(Nc2ccc(-c3ncc[nH]3)cc2)n1` showed an IC50 [4] of 23900 nM.

With `Cc1c(NC(=O)c2ccc([Si](C)(C)C)cc2)cccc1-c1cn(C)c(=O)c(Nc2ccc(C(=O)N3CCOCC3)cc2)n1` the IC50 [1] was 90 nM and the IC50 [4] was 1100 nM.

`Cc1c(NC(=O)c2cc3c(s2)CCCC3)cccc1-c1cn(C)c(=O)c(Nc2ccc(C3CCN(C)CC3)cc2)n1` showed a clearance [2] of 111 mL/min/kg, an IC50 [4] of 60 nM and a bioavailability [3] of under 5%.

In the case of `Cc1c(N)cccc1-c1cn(C)c(=O)c(Nc2ccc([C@@H]3C(=O)N(C)CCN3C)cc2)n1`, the Drug metabolism [6] is reported as “metabolite_detected”.

`Cc1c(NC(=O)c2cc3c(s2)CCCC3)cccc1-c1cn(C)c(=O)c(Nc2ccc([C@H]3C(=O)N(C)CCN3C)cc2)n1` showed a clearance [2] of 11 mL/min/kg and a bioavailability [3] of 41%.

`Cc1c(NC(=O)c2cc3c(s2)CCCC3)cccc1-c1cn(C)c(=O)c(Nc2ccn3ccnc3c2)n1` showed an IC50 [4] of 1300 nM.

With `Cc1c(NC(=O)c2ccc(C(C)(C)O)cc2)cccc1-c1cn(C)c(=O)c(Nc2ccc(C(=O)N3CCOCC3)cc2)n1` the IC50 [1] was 150 nM and the IC50 [4] was 2800 nM.

In the case of `Cc1c(NC(=O)c2cc3c(s2)CCCC3)cccc1-c1cn(C)c(=O)c(Nc2ccc([C@@H]3C(=O)N(C)CCN3C)cc2)n1`, the bioavailability [7] is reported as 16%, the Activity [8] is reported as “Non-toxic” and the clearance [9] is reported as 14 mL/min/kg. For the same compound, the bioavailability [10] was 16%, the Drug metabolism [11] was “metabolite_detected” and the clearance [2] was 4.4 mL/min/kg. For the same compound, the clearance [12] was 33 mL/min/kg, the bioavailability [13] was 18% and the clearance [14] was 43 mL/min/kg. For the same compound, the Activity [15] was “Non-toxic”, the Activity [16] was “Non-toxic” and the inhibition at 10 µM [17] was 27%. For the same compound, the Activity [18] was “Non-toxic”, the solubility [19] was 7 µg/mL (≈ 11.7 µM) and the bioavailability [20] was 32%. It also gave a bioavailability [3] of 35% and a bioavailability [21] of 35%.

Compound `Cc1ccc(C(=O)Nc2cccc(-c3cn(C)c(=O)c(Nc4ccc(C(=O)N5CCOCC5)cc4)n3)c2C)cc1` has an IC50 [5] of 860 nM.

With `CCc1ccc(C(=O)Nc2cccc(-c3cn(C)c(=O)c(Nc4ccc(C(=O)N5CCOCC5)cc4)n3)c2C)cc1` the IC50 [5] was 225 nM.

In the case of `Cc1c(NC(=O)c2cnc(C(C)(C)C)nc2)cccc1-c1cn(C)c(=O)c(Nc2ccc(C(=O)N3CCOCC3)cc2)n1`, the IC50 [1] is reported as 270 nM and the IC50 [4] is reported as 3700 nM.

With `Cc1c(NC(=O)c2cnc(C(C)(C)C)cn2)cccc1-c1cn(C)c(=O)c(Nc2ccc(C(=O)N3CCOCC3)cc2)n1` the IC50 [1] was 70 nM and the IC50 [4] was 890 nM.

With `Cc1c(NC(=O)c2ccc(N(C)C)cc2)cccc1-c1cn(C)c(=O)c(Nc2ccc(C(=O)N3CCOCC3)cc2)n1` the IC50 [1] was 230 nM and the IC50 [4] was 410 nM.

Compound `Cc1c(NC(=O)c2cc3c(s2)CCCC3)cccc1-c1cn(C)c(=O)c(Nc2ccc3[nH]ccc3c2)n1` has an IC50 [4] of 1100 nM.

In the case of `Cc1c(NC(=O)c2cc3c(s2)CCOC3)cccc1-c1cn(C)c(=O)c(Nc2ccc(C(=O)N3CCOCC3)cc2)n1`, the IC50 [4] is reported as 1300 nM.

With `Cc1c(NC(=O)c2cc3c(s2)CCCC3)cccc1-c1cn(C)c(=O)c(Nc2ccc(N3CC[C@@H](N(C)C)C3)cc2)n1` the IC50 [4] was 800 nM.
